Results published in BindingDB's records for doi:10.1021/jm00065a015 (Smithkline Beecham Pharmaceuticals, 1993).

Molecular target: T1, 5-hydroxytryptamine receptor 2C (Rattus norvegicus, UniProt P08909)
T1 sequence (P08909 whole entry): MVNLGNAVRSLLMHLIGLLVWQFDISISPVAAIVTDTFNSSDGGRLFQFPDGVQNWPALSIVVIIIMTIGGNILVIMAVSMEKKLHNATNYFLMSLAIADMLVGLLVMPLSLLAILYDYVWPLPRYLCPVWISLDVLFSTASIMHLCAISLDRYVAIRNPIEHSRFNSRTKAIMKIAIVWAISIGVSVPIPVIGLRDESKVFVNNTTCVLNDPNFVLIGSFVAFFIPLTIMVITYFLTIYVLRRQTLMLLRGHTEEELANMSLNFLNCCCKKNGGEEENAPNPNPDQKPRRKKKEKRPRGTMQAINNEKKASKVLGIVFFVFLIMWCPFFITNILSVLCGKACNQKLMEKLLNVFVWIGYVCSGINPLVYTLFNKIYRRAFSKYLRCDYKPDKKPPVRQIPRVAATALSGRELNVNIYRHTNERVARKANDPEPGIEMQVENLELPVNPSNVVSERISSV
Assay: Binding affinity for 5-hydroxytryptamine 1C receptor was determined

Compound: NCCc1c[nH]c2ccc(C(N)=O)cc12 [[3H]-5-carboxamidotryptamine]
- Kd: 631 nM
